Results: patent publication US20230322805A1, “NOVEL PYRIMIDODIAZEPINE DERIVATIVES OR USES THEREOF” (SPARK BIOPHARMA, INC., priority 2020, published 2023)

Tested on: tau (Tau5, phospho S199, T231) in BiFC-tau Venus HEK293 cells
Assay: Immunoblot of total tau and phospho-tau in HEK293 BiFC-tau cells
Format: cell-based, human
Protocol: Cells were collected and lysed in modified radioimmunoprecipitation assay(RIPA) buffer 50 mM Tris-HCl, pH 7.8, […], 1% NP-40, 0.5% deoxycholate, 5 mM NaF, 2 mM Na3VO4, and 1× Protease Inhibitor Cocktail(Roche). The concentration of total protein in each lysate was then determined using a whole cell assay and Pierce BCA Protein Assay Kit (ThermoFisher Scientific). Centrifugation was performed at 200 g for 10 minutes at 4° C. for measurement. Equal amounts of each lysate were fractionated by PAGE, transferred to a PVDF membrane (Bio-Rad), and blocked with 2% bovine serum albumin (BSA, MP Biomedicals) in Tris Buffered Saline supplemented with Tween20 (TBST, Sigma) for 1 hour at room temperature.
Membranes were probed with protein-specific antibodies overnight at 4° C. The following day, membranes were washed three times in TBST and incubated with 2% BSA in TBST for 1 hour at room temperature with anti-rabbit or anti-mouse horseradish peroxidase secondary antibodies (Cell Signaling Technology). After washing, membranes were exposed to detection reagents (GE Healthcare) and quantified via chemiluminescence (Bio-Rad). […]

## CN(Cc1ccc(Cl)cc1)c1ncnc2c1[C@@H]1OC[C@H](CN2)N1S(=O)(=O)c1ccc([N+](=O)[O-])cc1 [Compound 117]
10 μM SB1617, 200 nM TG, pre-treated with 20 μg/mL cycloheximide, 8 hours
  total tau level: did not cause a significant change in tau level
SB1617 and TG with autophagy inhibitors 3-methyladenine and bafilomycin A1
  effect on reduction of total tau level: is reduced, but does not completely diminish
With 80 nM thapsigargin for 20 hours
  total tau (Tau5) and phospho-tau (S199, T231) levels: decreased all tau levels
